Molecular target: T1, Human recombinant MetAP2 (Homo sapiens, UniProt P50579)
T1 construct: made in house; host or cells: Sf9 insect cells
Experiment: inhibition of recombinant human MetAP2 activity (MAS substrate, amino acid oxidase/Amplex red fluorescence)
Format: biochemical
Conditions: manganese enzyme, 30 minutes at 25° C., pH 7.5, 0.75 mM MAS substrate, 1% DMSO
Protocol: Compounds are tested for their capacity to inhibit recombinant human MetAP2 activity using the following assay.
Human recombinant MetAP2 expressed in Sf9 cells followed by affinity purification and EDTA treatment to remove endogenous active site cation was dialysed against MnCl2 to produce the manganese enzyme used in the assay. The assay was carried out for 30 minutes at 25° C. in 50 mM HEPES buffer containing 100 mM NaCl, pH 7.5 the presence of 0.75 mM Methionine-Alanine-Serine (MAS) substrate and 50 μg/ml amino acid oxidase using a dilution of purified MetAP2 giving >3-fold signal:noise. Cleavage of the substrate by MetAP2 and oxidation of free methionine by amino acid oxidase was detected and quantified using fluorescence generated by Amplex red (10-acetyl-3,7-dihydroxyphenoxazine) in combination with horseradish peroxidase which detects H2O2 released during the oxidation step. The fluorescent signal was detected using a multiwell fluorimeter. Compounds were diluted in DMSO prior to addition to assay buffer, the final DMSO concentration in the assay being 1%.
The IC50 is defined as the concentration at which a given compound achieves 50% inhibition of control. IC50 values are calculated using the XLfit software package (version 2.0.5).

T1 sequence (P50579 whole entry): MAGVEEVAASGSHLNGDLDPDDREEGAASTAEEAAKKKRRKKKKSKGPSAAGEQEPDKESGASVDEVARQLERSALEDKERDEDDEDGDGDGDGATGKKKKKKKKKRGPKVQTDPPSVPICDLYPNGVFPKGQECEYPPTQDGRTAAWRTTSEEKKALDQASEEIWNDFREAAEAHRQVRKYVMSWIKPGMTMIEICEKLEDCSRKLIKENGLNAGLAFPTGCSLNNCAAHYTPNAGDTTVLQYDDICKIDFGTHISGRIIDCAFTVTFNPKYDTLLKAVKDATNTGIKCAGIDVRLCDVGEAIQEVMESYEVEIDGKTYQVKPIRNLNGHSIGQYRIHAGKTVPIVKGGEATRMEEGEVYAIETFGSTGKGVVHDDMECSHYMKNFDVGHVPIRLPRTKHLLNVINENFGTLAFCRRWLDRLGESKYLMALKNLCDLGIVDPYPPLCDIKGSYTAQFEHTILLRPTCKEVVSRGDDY

Row | Compound | IC50
1 | CC(C)(O)[C@@H]1CCN(C/C=C\c2cc(F)ccc2S(=O)(=O)Nc2ccc3c(c2C(=O)O)OC[C@@H]2C[C@H]32)C1 [Example 28, (1aR,7bS)-5-(4-Fluoro-2-{(Z)-3-[(R)-3-(2-hydroxypropan-2-yl)pyrrolidin-1-yl]prop-1-enyl}benzenesulfonylamino)-1,1a,2,7b-tetrahydrocyclopropa[c]chromene-4-carboxylic acid] | < 50 nM
2 | O=C(O)c1c(NS(=O)(=O)c2ccc(F)cc2CC2CC3CCCN3C2)ccc2c1OC[C@@H]1C[C@H]21 (stereo partly drawn) [Example 29, (1aR,7bS)-5-[4-Fluoro-2-(hexahydro-1H-pyrrolizin-2-ylmethyl)benzene-sulfonylamino]-1,1a,2,7b-tetrahydrocyclopropa[c]chromene-4-carboxylic acid] | < 50 nM
3 | CCN1CC[C@@H](Cc2ccccc2S(=O)(=O)Nc2ccc3c(c2C(=O)O)OC[C@@H]2C[C@H]32)C1 [Example 31, (1aR,7bS)-5-[2-((3R)-1-Ethylpyrrolidin-3-ylmethyl)benzenesulfonylamino]-1,1a,2,7b-tetrahydrocyclopropa[c]chromene-4-carboxylic acid] | < 50 nM
4 | CCN1CC[C@H](C(=O)NCc2cc(F)ccc2S(=O)(=O)Nc2ccc3c(c2C(=O)O)OC[C@@H]2C[C@H]32)C1 [Example 32, (1aR,7bS)-5-{2-[((S)-1-ethylpyrrolidine-3-carbonyl)aminomethyl]-4-fluoro-benzenesulfonylamino}-1,1a,2,7b-tetrahydrocyclopropa[c]chromene-4-carboxylic acid-formic acid (1:1)] | < 50 nM
5 | CCN1CC[C@@H](NCCc2cc(F)ccc2S(=O)(=O)Nc2ccc3c(c2C(=O)O)OC[C@@H]2C[C@H]32)C1 [Example 33, (1aR,7bS)-5-{2-[2-((R)-1-ethylpyrrolidin-3-ylamino)ethyl]-4-fluoro-benzene-sulfonylamino}-1,1a,2,7b-tetrahydrocyclopropa[c]chromene-4-carboxylic acid-formic acid (1:1)] | < 50 nM

From patent US9868717B2, “Tricyclic sulphonamide compounds and methods of making and using same” (Zafgen, Inc., priority 2012, dated 2018)
